Assay results published in patent US8329904B2, “Azacyclic derivatives” (Hoffmann-La Roche Inc., priority 2009, dated 2012).

Each compound was assayed against T1, human HSL (Homo sapiens, UniProt Q05469) (assay: Human Hormone-Sensitive Lipase (HSL) Enzyme Inhibition Assay). Details: colorimetric assay, 2,3-dimercapto-1-propanol tributyrate (DMPT) substrate, 37° C. for 20 minutes, absorbance at 405 nm; read-out: HSL hum IC50.
T1 construct: overlapping PCR to generate a full length human HSL ORF with a 3′-His6 tag; His6 (C); made in house; host or cells: High 5 insect cells (baculovirus, pFast-BAC)
T1 sequence (Q05469 1-1076): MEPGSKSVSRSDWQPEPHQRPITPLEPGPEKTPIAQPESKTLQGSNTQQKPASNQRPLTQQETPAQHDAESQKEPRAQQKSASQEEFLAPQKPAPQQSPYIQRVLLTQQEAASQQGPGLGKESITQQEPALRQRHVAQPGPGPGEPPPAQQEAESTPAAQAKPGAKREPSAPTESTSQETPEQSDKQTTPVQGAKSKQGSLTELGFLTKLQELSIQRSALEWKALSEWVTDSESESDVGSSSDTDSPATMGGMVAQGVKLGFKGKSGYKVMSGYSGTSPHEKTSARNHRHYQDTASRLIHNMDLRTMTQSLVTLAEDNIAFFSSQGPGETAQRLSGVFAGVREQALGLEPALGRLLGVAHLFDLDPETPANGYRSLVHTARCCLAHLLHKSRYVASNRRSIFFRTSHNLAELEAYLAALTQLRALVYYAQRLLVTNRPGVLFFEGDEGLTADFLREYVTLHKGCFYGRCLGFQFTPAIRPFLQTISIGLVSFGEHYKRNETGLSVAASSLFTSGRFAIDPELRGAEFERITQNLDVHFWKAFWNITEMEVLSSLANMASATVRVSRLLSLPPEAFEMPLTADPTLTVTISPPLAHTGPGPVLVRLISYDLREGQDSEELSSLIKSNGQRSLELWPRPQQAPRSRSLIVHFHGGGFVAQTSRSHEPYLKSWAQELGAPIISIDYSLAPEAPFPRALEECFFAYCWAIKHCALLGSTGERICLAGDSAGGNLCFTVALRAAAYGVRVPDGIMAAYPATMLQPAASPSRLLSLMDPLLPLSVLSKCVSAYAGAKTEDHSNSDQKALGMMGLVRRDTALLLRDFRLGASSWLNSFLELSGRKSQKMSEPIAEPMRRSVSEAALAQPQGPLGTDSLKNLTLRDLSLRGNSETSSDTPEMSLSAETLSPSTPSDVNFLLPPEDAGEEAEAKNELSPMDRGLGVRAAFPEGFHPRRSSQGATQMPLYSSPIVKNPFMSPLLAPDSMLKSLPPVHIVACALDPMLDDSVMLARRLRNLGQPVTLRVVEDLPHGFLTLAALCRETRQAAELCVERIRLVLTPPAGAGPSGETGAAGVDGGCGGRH
Assay type: biochemical
In short: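 Colorimetric thioester hydrolysis: compounds in DMSO series mixed with DMPT (1.5 mM) in MOPS pH 7.2 with BSA, then baculovirus-expressed His6-tagged full-length human HSL added, 37° C, 20 min. DTNB plus detergents added, 15 min room temperature, absorbance at 405 nm.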

SMILES	IC50 [nM]
Cn1ccc(S(=O)(=O)N2CCC3(CCN(c4ccc(OC(F)(F)F)cc4)C3=O)CC2)n1 [Example 184, 8-(1-Methyl-1H-pyrazole-3-sulfonyl)-2-(4-trifluoromethoxy-phenyl)-2,8-diaza-spiro[4.5]decan-1-one]	80
Cc1oncc1S(=O)(=O)N1CCC2(CCN(c3ccc(OC(F)(F)F)cc3)C2=O)CC1 [Example 185, 8-(5-Methyl-isoxazole-4-sulfonyl)-2-(4-trifluoromethoxy-phenyl)-2,8-diaza-spiro[4.5]decan-1-one]	220
Cc1noc(C)c1S(=O)(=O)N1CCC2(CCN(c3ccc(OC(F)(F)F)cc3)C2=O)CC1 [Example 186, 8-(3,5-Dimethyl-isoxazole-4-sulfonyl)-2-(4-trifluoromethoxy-phenyl)-2,8-diaza-spiro[4.5]decan-1-one]	110
O=C1N(c2ccc(OC(F)(F)F)cc2)CCC12CCN(S(=O)(=O)c1cccnc1)CC2 [Example 187, 8-(Pyridine-3-sulfonyl)-2-(4-trifluoromethoxy-phenyl)-2,8-diaza-spiro[4.5]decan-1-one]	30
O=C1N(c2ccc(OC(F)(F)F)cc2)CCC12CCN(S(=O)(=O)c1cccnc1Cl)CC2 [Example 188, 8-(2-Chloro-pyridine-3-sulfonyl)-2-(4-trifluoromethoxy-phenyl)-2,8-diaza-spiro[4.5]decan-1-one]	20
CNc1ncccc1S(=O)(=O)N1CCC2(CCN(c3ccc(OC(F)(F)F)cc3)C2=O)CC1 [Example 189, 8-(2-Methylamino-pyridine-3-sulfonyl)-2-(4-trifluoromethoxy-phenyl)-2,8-diaza-spiro[4.5]decan-1-one]	30
CN(C)c1ncccc1S(=O)(=O)N1CCC2(CCN(c3ccc(OC(F)(F)F)cc3)C2=O)CC1 [Example 190, 8-(2-Dimethylamino-pyridine-3-sulfonyl)-2-(4-trifluoromethoxy-phenyl)-2,8-diaza-spiro[4.5]decan-1-one]	20
O=C1N(c2ccc(OC(F)(F)F)cc2)CCC12CCN(S(=O)(=O)c1cccnc1NC1CC1)CC2 [Example 191, 8-(2-Cyclopropylamino-pyridine-3-sulfonyl)-2-(4-trifluoromethoxy-phenyl)-2,8-diaza-spiro[4.5]decan-1-one]	80
O=C1N(c2ccc(OC(F)(F)F)cc2)CCC12CCN(S(=O)(=O)c1cccnc1NCCO)CC2 [Example 192, 8-[2-(2-Hydroxy-ethylamino)-pyridine-3-sulfonyl]-2-(4-trifluoromethoxy-phenyl)-2,8-diaza-spiro[4.5]decan-1-one]	40
CC(CO)Nc1ncccc1S(=O)(=O)N1CCC2(CCN(c3ccc(OC(F)(F)F)cc3)C2=O)CC1 (centres unmarked) [Example 193, 8-[2-(2-Hydroxy-1-methyl-ethylamino)-pyridine-3-sulfonyl]-2-(4-trifluoromethoxy-phenyl)-2,8-diaza-spiro[4.5]decan-1-one]	60
COc1ncccc1S(=O)(=O)N1CCC2(CCN(c3ccc(OC(F)(F)F)cc3)C2=O)CC1 [Example 194, 8-(2-Methoxy-pyridine-3-sulfonyl)-2-(4-trifluoromethoxy-phenyl)-2,8-diaza-spiro[4.5]decan-1-one]	20
O=C1N(c2ccc(OC(F)(F)F)cc2)CCC12CCN(S(=O)(=O)c1cccnc1OCc1ccccc1)CC2 [Example 195, 8-(2-Benzyloxy-pyridine-3-sulfonyl)-2-(4-trifluoromethoxy-phenyl)-2,8-diaza-spiro[4.5]decan-1-one]	50
O=C1N(c2ccc(OC(F)(F)F)cc2)CCC12CCN(S(=O)(=O)c1cccnc1O)CC2 [Example 196, 8-(2-Hydroxy-pyridine-3-sulfonyl)-2-(4-trifluoromethoxy-phenyl)-2,8-diaza-spiro[4.5]decan-1-one]	230
Nc1ncccc1S(=O)(=O)N1CCC2(CCN(c3ccc(OC(F)(F)F)cc3)C2=O)CC1 [Example 197, 8-(2-Amino-pyridine-3-sulfonyl)-2-(4-trifluoromethoxy-phenyl)-2,8-diaza-spiro[4.5]decan-1-one]	80
O=C1N(c2ccc(OC(F)(F)F)cc2)CCC12CCN(S(=O)(=O)c1ccc(Cl)nc1)CC2 [Example 198, 8-(6-Chloro-pyridine-3-sulfonyl)-2-(4-trifluoromethoxy-phenyl)-2,8-diaza-spiro[4.5]decan-1-one]	150
O=C1N(c2ccc(OC(F)(F)F)cc2)CCC12CCN(S(=O)(=O)c1cnccc1Cl)CC2 [Example 199, 8-(4-Chloro-pyridine-3-sulfonyl)-2-(4-trifluoromethoxy-phenyl)-2,8-diaza-spiro[4.5]decan-1-one]	140
COc1ccncc1S(=O)(=O)N1CCC2(CCN(c3ccc(OC(F)(F)F)cc3)C2=O)CC1 [Example 200, 8-(4-M ethoxy-pyridine-3-sulfonyl)-2-(4-trifluoromethoxy-phenyl)-2,8-diaza-spiro[4.5]decan-1-one]	170
O=C1N(c2ccc(OC(F)(F)F)cc2)CCC12CCN(S(=O)(=O)c1ccccn1)CC2 [Example 201, 8-(Pyridine-2-sulfonyl)-2-(4-trifluoromethoxy-phenyl)-2,8-diaza-spiro[4.5]decan-1-one]	50
O=C1N(c2ccc(OC(F)(F)F)cc2)CCC12CCN(S(=O)(=O)c1ncccn1)CC2 [Example 202, 8-(Pyrimidine-2-sulfonyl)-2-(4-trifluoromethoxy-phenyl)-2,8-diaza-spiro[4.5]decan-1-one]	160
O=C1N(c2ccc(OC(F)(F)F)cc2)CCC12CCN(S(=O)(=O)c1ccncc1)CC2 [Example 203, 8-(Pyridine-4-sulfonyl)-2-(4-trifluoromethoxy-phenyl)-2,8-diaza-spiro[4.5]decan-1-one]	250
Cc1ccc(S(=O)(=O)N2CCC3(CCN(c4ccc(OC(F)(F)F)cc4)C3=O)CC2)nn1 [Example 204, 8-(6-Methyl-pyridazine-3-sulfonyl)-2-(4-trifluoromethoxy-phenyl)-2,8-diaza-spiro[4.5]decan-1-one]	140
O=C1N(c2ccc(OCC(F)(F)F)cc2)CCC12CCN(S(=O)(=O)c1cccnc1)CC2 [Example 205, 8-(Pyridine-3-sulfonyl)-2-[4-(2,2,2-trifluoro-ethoxy)-phenyl]-2,8-diaza-spiro[4.5]decan-1-one]	60
O=C1N(c2ccc(OCC(F)(F)F)cc2)CCC12CCN(S(=O)(=O)c1cccnc1Cl)CC2 [Example 206, 8-(2-Chloro-pyridine-3-sulfonyl)-2-[4-(2,2,2-trifluoro-ethoxy)-phenyl]-2,8-diaza-spiro[4.5]decan-1-one]	30
CNc1ncccc1S(=O)(=O)N1CCC2(CCN(c3ccc(OCC(F)(F)F)cc3)C2=O)CC1 [Example 207, 8-(2-Methylamino-pyridine-3-sulfonyl)-2-[4-(2,2,2-trifluoro-ethoxy)-phenyl]-2,8-diaza-spiro[4.5]decan-1-one]	60
O=C1N(c2ccc(OC(F)(F)F)cc2)CCC12CCN(S(=O)(=O)CC(O)C1CC1)CC2 (centres unmarked) [Example 208, 8-(2-Cyclopropyl-2-hydroxy-ethanesulfonyl)-2-(4-trifluoromethoxy-phenyl)-2,8-diaza-spiro[4.5]decan-1-one]	160
COC(CS(=O)(=O)N1CCC2(CCN(c3ccc(OC(F)(F)F)cc3)C2=O)CC1)C1CC1 (centres unmarked) [Example 209, 8-(2-Cyclopropyl-2-methoxy-ethanesulfonyl)-2-(4-trifluoromethoxy-phenyl)-2,8-diaza-spiro[4.5]decan-1-one]	50
O=C1N(c2ccc(OC(F)(F)F)cc2)CCC12CCN(S(=O)(=O)CC1(O)CCCC1)CC2 [Example 210, 8-(1-Hydroxy-cyclopentylmethanesulfonyl)-2-(4-trifluoromethoxy-phenyl)-2,8-diaza-spiro[4.5]decan-1-one]	60
COC1(CS(=O)(=O)N2CCC3(CCN(c4ccc(OC(F)(F)F)cc4)C3=O)CC2)CCCC1 [Example 211, 8-(1-Methoxy-cyclopentylmethanesulfonyl)-2-(4-trifluoromethoxy-phenyl)-2,8-diaza-spiro[4.5]decan-1-one]	130
CC(C)(O)CS(=O)(=O)N1CCC2(CCN(c3ccc(OC(F)(F)F)cc3)C2=O)CC1 [Example 212, 8-(2-Hydroxy-2-methyl-propane-1-sulfonyl)-2-(4-trifluoromethoxy-phenyl)-2,8-diaza-spiro[4.5]decan-1-one]	200
